Reference: patent publication US7888332B2, “Hydrazide-containing CFTR inhibitor compounds and uses thereof” (The Regents of the University of California, priority 2004, dated 2011)
Read-outs that look alike come from different tables or passages of the source.

What was measured:
CFTR [1] = target: T1, CFTR (Homo sapiens, UniProt P13569); experiment: Short-circuit current (apical Cl− current) analysis on permeabilized CFTR-expressing FRT cells; conditions: for inhibition at 50 µM: FRT, read-out: % inhibition at 50 μM; for change of inhibitory potency relative to parent compound: vs GlyH-101 / GlyH-102
Target sequence in this assay (P13569 whole entry): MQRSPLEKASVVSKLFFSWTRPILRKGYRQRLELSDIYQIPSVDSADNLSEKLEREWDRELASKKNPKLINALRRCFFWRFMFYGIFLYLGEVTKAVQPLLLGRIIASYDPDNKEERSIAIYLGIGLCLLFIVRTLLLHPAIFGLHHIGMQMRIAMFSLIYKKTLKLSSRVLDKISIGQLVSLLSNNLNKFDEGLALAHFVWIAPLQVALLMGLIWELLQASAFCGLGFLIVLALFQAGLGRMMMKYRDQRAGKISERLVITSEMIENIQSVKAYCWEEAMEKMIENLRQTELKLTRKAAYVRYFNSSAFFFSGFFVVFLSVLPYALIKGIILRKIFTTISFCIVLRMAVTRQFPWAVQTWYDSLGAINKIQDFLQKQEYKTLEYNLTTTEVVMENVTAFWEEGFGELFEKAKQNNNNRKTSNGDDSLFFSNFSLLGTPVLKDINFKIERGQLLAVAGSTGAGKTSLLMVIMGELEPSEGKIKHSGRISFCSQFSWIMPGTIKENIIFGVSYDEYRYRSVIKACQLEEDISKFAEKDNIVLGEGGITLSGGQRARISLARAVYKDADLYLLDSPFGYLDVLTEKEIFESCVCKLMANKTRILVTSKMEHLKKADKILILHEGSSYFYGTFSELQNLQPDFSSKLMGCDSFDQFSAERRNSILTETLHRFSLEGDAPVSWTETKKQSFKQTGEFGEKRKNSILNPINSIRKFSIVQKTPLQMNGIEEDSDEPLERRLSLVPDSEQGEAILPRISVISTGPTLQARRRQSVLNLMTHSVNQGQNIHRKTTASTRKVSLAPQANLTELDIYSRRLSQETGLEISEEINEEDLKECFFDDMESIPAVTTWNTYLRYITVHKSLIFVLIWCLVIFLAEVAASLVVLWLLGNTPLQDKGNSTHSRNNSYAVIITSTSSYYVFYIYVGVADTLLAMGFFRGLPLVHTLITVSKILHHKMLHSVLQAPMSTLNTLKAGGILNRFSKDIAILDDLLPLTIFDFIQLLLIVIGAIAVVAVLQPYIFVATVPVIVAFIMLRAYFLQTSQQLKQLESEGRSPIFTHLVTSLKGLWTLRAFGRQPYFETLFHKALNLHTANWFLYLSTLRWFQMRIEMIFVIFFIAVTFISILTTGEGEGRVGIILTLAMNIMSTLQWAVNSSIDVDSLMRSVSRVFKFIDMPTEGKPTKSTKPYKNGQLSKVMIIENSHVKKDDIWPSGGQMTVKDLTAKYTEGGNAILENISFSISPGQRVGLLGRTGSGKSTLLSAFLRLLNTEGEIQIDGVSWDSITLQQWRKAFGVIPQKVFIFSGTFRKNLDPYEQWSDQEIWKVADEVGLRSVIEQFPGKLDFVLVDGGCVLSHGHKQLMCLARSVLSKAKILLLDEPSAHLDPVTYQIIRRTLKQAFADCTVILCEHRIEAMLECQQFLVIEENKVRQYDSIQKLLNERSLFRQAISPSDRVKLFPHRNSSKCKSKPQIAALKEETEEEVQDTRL

[2] = Spectrophotometric pH titration (pKa); type: physicochemical; conditions: read-out: pKa, secondary amine
Protocol: FIG. 5A is a graph illustrating the pH-dependent absorbance changes (right panel) of the chemical compounds (10 μM) (corresponding chemical structures, left panel) in NaCl (100 mM) containing MES, HEPES, boric acid, and citric acid (each 10 mM) titrated to different pH using HCl/NaOH. Absorbance changes measured at analytical wavelengths of 346, 348, 346, and 236 nm (top to bottom).

[3] = test system: upper airway CFTR Cl− conductance; experiment: Nasal potential difference measurements in mice; conditions: compound in all solutions (100 μM)
CFTR [4] = target: T1, CFTR; parameters: host or cells: 'permeabilized cell preparations' and 'most intact epithelial cells' (not specified); conditions: cited from earlier work
Target sequence in this assay (P13569 whole entry, species assumed): as the sequence (P13569 whole entry) above

[5] = Intestinal absorption in closed mid-jejunal loops; type: in vivo; conditions: mice, 2 hours
Protocol: Absorption studies were performed using mid-jejunal loops created as described above. […] After 2 hours loop fluid was withdrawn and optical absorbance of test compound and FITC were measured (OD342/OD494nm). Percentage intestinal absorption was computed assuming zero absorption of FITC-dextran.
Intestinal absorption was measured in mice in vivo from the disappearance of MalH compounds from the lumens of closed mid-jejunal loops over 2 hours. In these experiments mannitol was included in the MalH-containing solutions to prevent fluid absorption. Absorption rates were referenced against a large FITC-dextran, which was assumed to undergo no absorption over the 2 hour study.

CFTR [6] = target: T1, CFTR; experiment: Whole-cell patch-clamp on FRT cells expressing CFTR; type: cell-based; parameters: expressed in transfected cells; host or cells: Fisher Rat Thyroid (FRT) cells, stably transfected; conditions: GlyH-101 at submaximal concentrations; CFTRinh-172 5 μM
Protocol: Patch-clamp experiments were carried out at room temperature on FRT cells stably expressing wildtype CFTR. Cell-attached and whole-cell configurations were used (Hamill et al., Pflugers Arch. 391:85-100, 1981). The cell membrane was clamped at specified voltages using an EPC-7 patch-clamp amplifier (List Medical). Data were filtered at 500 Hz and digitized at 2000 Hz. For whole-cell experiments the pipette solution contained (in mM): 120 CsCl, 10 TEA-Cl, 0.5 EGTA, 1 MgCl2, 40 mannitol, 10 Cs-HEPES and 3 mM MgATP (pH 7.3). For cell attached experiments EGTA was replaced with 1 mM CaCl2. The bath solution for whole-cell experiments contained (in mM): 150 NaCl, 1 CaCl2, 1 MgCl2, 10 glucose, 10 mannitol, 10 Na-TES (pH 7.4). In cell-attached experiments the bath solution contained (in mM): 130 KCl, 2 NaCl, 2 CaCl2, 2 MgCl2, 10 glucose, 20 mannitol, and 10 K-Hepes (pH 7.3). Inhibitors were applied by extracellular perfusion. CFTR channel activity in cell-attached patches was analyzed as described previously (Taddei et al., FEBS Lett. 558:52-56, 2004).
The mechanism of CFTR block by GlyH-101 was studied using the whole-cell configuration of the patch-clamp technique. After maximal activation of CFTR in stably transfected FRT cells by 5 μM forskolin, current-voltage relationships were measured at GlyH-101 concentrations from 0 to 50 μM. […] Extracellular perfusion with 10 μM GlyH-101 produced an immediate reduction in current that was strongly dependent on membrane potential (FIG. 4A, right panel). At more positive membrane potentials outward positive currents (Cl^− movement into the cell) were reduced compared to inward currents. […] Data for the thiazolidinone 3-[(3-trifluoromethyl)phenyl]-5-[(4-carboxyphenyl)methylene]-2-thioxo-4-thiazolidinone (referred to herein as CFTRinh-172) (5 μM) is shown for comparison. […] FIG. 4C summarizes percentage CFTR current block as a function of GlyH-101 concentration at different membrane voltages.
Target sequence in this assay (P13569 whole entry): as above

[7] = Ki, Table 4, Group IV, concentration giving 50% inhibition of CFTR Cl− conductance
[8] = Ki, Table 2, Group II, concentration giving 50% inhibition of CFTR Cl− conductance
[9] = Ki, Table 1, Group I, concentration giving 50% inhibition of CFTR Cl− conductance
[10] = Ki, Table 3, Group III, concentration giving 50% inhibition of CFTR Cl− conductance
[11] = Table 1, Group I, concentration giving 50% inhibition of CFTR Cl− conductance

| SMILES | inhibition at 50 µM (CFTR [1]) | Ki (CFTR [1]; [9]) | further results |
| --- | --- | --- | --- |
| O=C(COc1ccc2ccccc2c1)NN=Cc1cc(Br)c(O)c(Br)c1 [AceH-402] | 86% | – | Ki (CFTR [1]; [7]): 17 µM |
| O=C(CNc1ccc2ccccc2c1)NNC(=O)c1cc(Br)c(O)c(Br)c1 [GlyH-202, 3,5-dibromo-4-hydroxy-[2-(2-napthalenamine)aceto]benzoic acid hydrazide] | 57% | – | Ki (CFTR [1]; [8]): 22 µM |
| Cc1ccc(CC(=O)NN=Cc2cc(Br)c(O)c(Br)c2)cc1 [AceH-404] | 63% | – | Ki (CFTR [1]; [7]): 15 µM |
| CCOC(=O)CNc1ccc2ccccc2c1 [ethyl N-(2-napthalenyl) glycinate, ethyl N-(2-naphthalenyl)glycinate] | – | – | pKa [2]: ~4.7 |
| O=C(CNc1ccc(Cl)cc1)NN=Cc1cc(Br)c(O)c(Br)c1 [GlyH-114] | 95% | 5 µM | – |
| O=C(CNc1ccc2ccccc2c1)NNCc1cc(Br)c(O)c(Br)c1 [GlyH-302] | 55% | – | Ki (CFTR [1]; [10]): ~50 µM |
| O=C(NN=Cc1cc(Br)c(O)c(Br)c1O)C(=O)Nc1ccc2ccccc2c1 [OxaH-110, N-2-napthalenyl-[(3,5-dibromo-2,4-dihydroxyphenyl)methylene]oxamic acid hydrazide] | 86% | 2 µM | Ki (CFTR [1]; apparent Ki, CFTR stimulated by 100 μM CPT-cAMP): ~2 µM; change of inhibitory potency relative to parent compound (CFTR [1]): two-three fold greater |
| CC(=NNC(=O)CNc1ccc2ccccc2c1)c1cc(Br)c(O)c(Br)c1 [GlyH-109] | 100% | 2.5 µM | – |
| O=C(COc1ccc2ccccc2c1)NN=Cc1cc(Br)c(O)c(Br)c1O [AceH-401] | 84% | – | Ki (CFTR [1]; [7]): 21 µM |
| CC(Nc1ccc2ccccc2c1)C(=O)NN=Cc1cc(Br)c(O)c(Br)c1 (stereo not shown) [GlyH-107] | 80% | 10 µM | – |
| O=C(NNC(=O)c1cc(Br)c(O)c(Br)c1)C(=O)Nc1ccc2ccccc2c1 [OxaH-204] | – | – | Ki (CFTR [1]; [8]): > 50 µM |
| O=C(CNc1ccc(Cl)cc1)NN=Cc1cc(Br)c(O)c(Br)c1O [GlyH-115] | 91% | 5 µM | – |
| O=C(NNCc1cc(Br)c(O)c(Br)c1O)C(=O)Nc1ccc2ccccc2c1 [OxaH-303] | 70% | – | Ki (CFTR [1]; [10]): 10 µM |
| O=C(CNc1ccc2ccccc2c1)N/N=C/c1cc(Br)c(O)c(Br)c1 [GlyH-102] | – | – | % inhibition at 50 μM (CFTR [1]; Table 1, Group I): 98%; Ki (CFTR [1]; [11]): 5 µM |
| Cc1ccc(CC(=O)NN=Cc2cc(Br)c(O)c(Br)c2O)cc1 [AceH-403] | 54% | – | Ki (CFTR [1]; [7]): 10 µM |
| O=S(=O)(O)c1cc(N=C=S)ccc1C=Cc1ccc(N=C=S)cc1S(=O)(=O)O [DIDS, reference compound] | – | – | inhibition of (CFTR-independent) hyperpolarization produced by low Cl− [3]: partial inhibition |
| O=C(NN=Cc1cc(Br)c(O)c(Br)c1)C(=O)Nc1ccc2ccccc2c1 [OxaH-111] | 52% | 2.5 µM | change of inhibitory potency relative to parent compound (CFTR [1]): two-three fold greater |
| O=C(O)c1ccc(C=C2SC(=S)N(c3cccc(C(F)(F)F)c3)C2=O)cc1 [CFTRinh-172, 3-[(3-trifluoromethyl)phenyl]-5-[(4-carboxyphenyl)methylene]-2-thioxo-4-thiazolidinone] | – | – | Ki (CFTR [4]; most intact epithelial cells): 2 to 5 µM; Ki (CFTR [4]; permeabilized cell preparations): 0.2 to 0.3 µM; absorption from closed mid-jejunal loops [5]: > 90%; current-voltage relationship (CFTR [6]): linear |
| Cc1ccc(NCC(=O)NN=Cc2cc(Br)c(O)c(Br)c2O)cc1 [GlyH-116] | 79% | 10 µM | – |
| O=C(NNC(=O)c1cc(Br)c(O)c(Br)c1O)C(=O)Nc1ccc2ccccc2c1 [OxaH-203] | – | – | Ki (CFTR [1]; [8]): > 50 µM |
| O=C(CNc1cccc2ccccc12)NN=Cc1cc(Br)c(O)c(Br)c1 [GlyH-105] | 87% | 15 µM | – |
| CC(=NNC(=O)C(=O)Nc1ccc2ccccc2c1)c1cc(Br)c(O)c(Br)c1 [OxaH-113] | 90% | 3 µM | – |
| O=C(CNc1cccc2ccccc12)NN=Cc1cc(Br)c(O)c(Br)c1O [GlyH-104] | 86% | 12 µM | change of inhibitory potency relative to parent compound (CFTR [1]): ten-fold |
| CC(Nc1ccc2ccccc2c1)C(=O)NN=Cc1cc(Br)c(O)c(Br)c1O (stereo not shown) [GlyH-106] | – | – | % inhibition at 50 μM (CFTR [1]; Table 1, Group I): 91%; Ki (CFTR [1]; [11]): 6 µM |
| CC(=NNC(=O)CNc1ccc2ccccc2c1)c1cc(Br)c(O)c(Br)c1O [GlyH-108] | – | – | % inhibition at 50 μM (CFTR [1]; Table 1, Group I): 81%; Ki (CFTR [1]; [11]): 10 µM |
| CC(=NNC(=O)C(=O)Nc1ccc2ccccc2c1)c1cc(Br)c(O)c(Br)c1O [OxaH-112] | 95% | 3 µM | – |
| O=C(NNCc1cc(Br)c(O)c(Br)c1)C(=O)Nc1ccc2ccccc2c1 [OxaH-304] | 78% | – | Ki (CFTR [1]; [10]): 12 µM |
| COc1c(Br)cc(C=NNC(=O)CNc2ccc3ccccc3c2)c(O)c1Br [GlyH-103] | 56% | 20 µM | – |
